From publication PMC8976910, “Novel oxadiazole derivatives as potent inhibitors of α-amylase and α-glucosidase enzymes: Synthesis, in vitro evaluation, and molecular docking studies” (Iranian Journal of Basic Medical Sciences, 2021)
In brackets after ≈: the same amount, converted by molar mass.

Legend:
[1] = target: T1, porcine pancreatic amylase (Sus scrofa, UniProt P00690); assay: In vitro alpha-amylase inhibitory activity (starch/DNS, 540 nm); format: biochemical; details: for % Inhibition (alpha-amylase): concentration not stated (test compounds 1–100 μg/ml); for IC50: porcine pancreatic amylase, pH 6.8, 25 °C, test compounds 1–100 μg/ml, ± SEM, read-out: IC50 µg/ml ± SEM (alpha-amylase inhibition) (converted)
T1 sequence (P00690 16-511): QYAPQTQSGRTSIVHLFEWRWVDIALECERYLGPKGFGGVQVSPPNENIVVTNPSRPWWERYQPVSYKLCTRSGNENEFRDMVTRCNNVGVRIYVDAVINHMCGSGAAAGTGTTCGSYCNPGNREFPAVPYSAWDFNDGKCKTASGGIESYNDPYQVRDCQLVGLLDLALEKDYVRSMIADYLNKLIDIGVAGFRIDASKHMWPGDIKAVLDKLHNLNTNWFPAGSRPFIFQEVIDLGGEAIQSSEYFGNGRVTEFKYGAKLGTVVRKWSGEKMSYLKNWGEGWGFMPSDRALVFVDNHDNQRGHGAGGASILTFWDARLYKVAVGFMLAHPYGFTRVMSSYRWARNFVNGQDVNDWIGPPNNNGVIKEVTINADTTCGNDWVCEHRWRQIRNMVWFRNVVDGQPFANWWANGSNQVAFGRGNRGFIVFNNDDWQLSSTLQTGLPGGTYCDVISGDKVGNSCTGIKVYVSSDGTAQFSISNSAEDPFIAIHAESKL
Protocol: To this reaction mixture, 1% starch solution was added (500 μl in 0.2 mM phosphate buffer, pH 6.8) and incubated for an additional 10 min. 1 ml of DNS (di-nitro-salicylic-acid) color reagent was added to arrest the reaction. The reaction mixture was boiled for 10 min and then brought to ambient temperature. The absorbance of the resulting mixture was measured at 540 nm and the inhibitory activity was calculated using the following formula.
% Inhibition =(Astandard -Asample)/Astandard× 100
The IC50 was calculated using non-linear regression plot of % inhibition versus concentrations with the help of GraphPad Prism, version 6.0.

α-glucosidase = assay: In vitro alpha-glucosidase inhibitory activity (p-NPG, 400 nm); format: biochemical; details: for % Inhibition (alpha-glucosidase): concentration not stated (test compounds 1-100 μg/ml); for IC50 µg/ml ± SEM (alpha-glucosidase inhibition): p-NPG substrate, 37 °C, test compounds 1-100 μg/ml
Protocol: The α-glucosidase inhibitory activity was determined according to a previously reported method with slight modifications([19]). […] A 500 μl solution was prepared by adding 10 μl of test compounds (1-100 μg/ml) and 490 μl of phosphate buffer (pH 6.9). 250 μl of 5mM p-nitrophenyl α-d-glucopyranoside (p-NPG) were added to this reaction mixture and incubated for 10 min at 37 °C. […] The α-glucosidase inhibitory activity was calculated as a measure of p-nitrophenol released from p-NPG. […] The percentage inhibition was calculated using the following formula; % Inhibition = (^Astandard^- Asample) / ^Astandard × 100.

[2] = test system: 3T3 (mouse fibroblast) cells; assay: MTT assay for cytotoxicity analysis; format: cell-based; details: for cytotoxic effects against 3T3 (mouse fibroblast) cells, in words: MTT, 1.875-30 µM; for inhibition at 1.875 µM / inhibition at 3.75 µM / inhibition at 7.5 µM / inhibition at 15 µM / inhibition at 30 µM: Mus musculus, NIH3T3, 48 h, 3T3 cells, 48 hr, read-out: % Growth Inhibition
Protocol: Cytotoxic activity of compounds was evaluated in 96-well flat-bottomed microplates by using the standard MTT (3-[4, 5-dimethylthiazole-2-yl]-2, 5-diphenyl-tetrazolium bromide) colorimetric assay ([34]). For this purpose, 3T3 (mouse fibroblast, ATCC # CRL-1658, Lot # 59049195) cells were cultured in Dulbecco’s Modified Eagle Medium, supplemented with 5% fetal bovine serum (FBS), 100 IU/ml penicillin, and 100 µg/ml streptomycin in 75 cm^2 flasks, and kept in a 5% CO2 incubator at 37 °C. Exponentially growing cells were harvested, counted with a hemocytometer, and diluted with a particular medium. Cell culture with concentration of 5x10^4 cells/ml was prepared and introduced (100 µl/well) into 96-well plates. After overnight incubation, the medium was removed and 200 µl of fresh medium was added with various oxadiazole concentrations (30 µM, 15 µM, 7.5 µM, 3.75 µM, and 1.875 µM). After 48 hr, 200 µl MTT (0.5 mg/ml) was added to each well and incubated further for 4 hr. Subsequently, 100 µl of DMSO was added to each well. The extent of MTT reduction to formazan within cells was calculated by measuring the absorbance at 540 nm, using a microplate reader (Spectra Max Plus, Molecular Devices, CA, USA). The cytotoxicity was recorded as concentration causing 50% growth inhibition (IC50) for 3T3 cells. The percent inhibition was calculated by using the following formula;
% Inhibition=100-((mean of O.D of test compound-mean of O.D of negative control)/ (mean of O.D of positive control - mean of O.D of negative control) *100).
The results (% inhibition) were processed by using SoftMax Pro software (Molecular Device, USA).

Structure (SMILES)	% Inhibition (alpha-amylase) [1]	IC50 [1]	% Inhibition (alpha-glucosidase) (α-glucosidase)	IC50 µg/ml ± SEM (alpha-glucosidase inhibition) (α-glucosidase)	melting point	cytotoxic effects against 3T3 (mouse fibroblast) cells, in words [2]	inhibition at 1.875 µM [2]	inhibition at 3.75 µM [2]	inhibition at 7.5 µM [2]	inhibition at 15 µM [2]	inhibition at 30 µM [2]
OCCSc1nnc(-c2ccccn2)o1 [4a(a), 2-{[5-(pyridin-2-yl)-1,3,4-oxadiazol-2-yl]sulfanyl} ethan-1-ol]	9.42%	1300 µM	97.2%	15.45 ± 0.20 µg/mL (≈ 69.2 µM)							
OCCSc1nnc(-c2cccnc2)o1 [4a(b), 2-{[5-(pyridin-3-yl)-1,3,4-oxadiazol-2-yl]sulfanyl} ethan-1-ol]	26%	831 µM		No effect							
OCCSc1nnc(-c2ccncc2)o1 [4a(c), 2-{[5-(pyridin-4-yl)-1,3,4-oxadiazol-2-yl]sulfanyl} ethan-1-ol]	3.21%	1770 µM	16.3%	299.11 ± 0.31 µg/mL (≈ 1340 µM)	180 °C						
OCCSc1nnc(-c2ccccc2O)o1 [Compound 5a, 2-{5-[(2-hydroxyethyl)sulfanyl]-1,3,4-oxadiazol-2-yl} phenol]	56.41%	252 µM	98.14%	12.27 ± 0.41 µg/mL (≈ 51.5 µM)	165 to 170 °C	negligible cytotoxic effects	3%	5%	12%	16%	26.2%
OCCSc1nnc(-c2ccc(O)cc2)o1 [Compound 5b, 4-{5-[(2-hydroxyethyl)sulfanyl]-1,3,4-oxadiazol-2-yl} phenol]	50.11%	272 µM	41.8%	62.01 ± 0.92 µg/mL (≈ 260 µM)							
OCCSc1nnc(-c2ccccc2Cl)o1 [Compound 5c, 2-{[5-(2-chlorophenyl)-1,3,4-oxadiazol-2-yl]sulfanyl} ethan-1-ol]	49.41%	267 µM	40.04%	69.04 ± 0.27 µg/mL (≈ 269 µM)	165 °C						
OCCSc1nnc(-c2cccc(Br)c2)o1 [Compound 5d, 2-{[5-(3-bromophenyl)-1,3,4-oxadiazol-2-yl]sulfanyl} ethan-1-ol]	43.6%	298 µM	39.7%	73.61 ± 0.02 µg/mL (≈ 244 µM)	186 to 190 °C						
OCCSc1nnc(-c2cccc(I)c2)o1 [Compound 5e, 2-{[5-(3-iodophenyl)-1,3,4-oxadiazol-2-yl]sulfanyl} ethan-1-ol]	40.2%	279 µM	40.2%	68.02 ± 0.43 µg/mL (≈ 195 µM)	170 °C						
OCCSc1nnc(-c2cc(O)c(O)c(O)c2)o1 [Compound 5f, 5-{5-[(2-hydroxyethyl)sulfanyl]-1,3,4-oxadiazol-2-yl} benzene-1,2,3-triol]	19.04%	772 µM	9.04%	273.06 ± 0.04 µg/mL (≈ 1010 µM)	265 to 270 °C						
OCCSc1nnc(-c2ccccc2)o1 [Compound 5g, 2-[(5-phenyl-1,3,4-oxadiazol-2-yl)sulfanyl] ethan-1-ol]	92.16%	58.9 µM	36.16%	80.8 ± 0.52 µg/mL (≈ 364 µM)	207 to 210 °C	negligible cytotoxic effects	~1.5%	3%	8%	10%	19.6%
OCCN1C[C@H](O)[C@@H](O)[C@H](O)[C@H]1CO [Miglitol, reference compound]			98.9%	11.47 ± 0.02 µg/mL (≈ 55.4 µM)							
